Results on seven molecules are retold here after ChEMBL document CHEMBL1121567, “Synthesis of some 5-phenylhexahydroazepino[4,5-b]indoles as potential neuroleptic agents” (1980).

Each structure is given as a SMILES string.

One experiment concerns Mus musculus. The experiment can be described thus: Effective dose to reverse tetrabenazine ptosis in mouse when administered po. Format: functional.
The test system of another experiment is Rattus norvegicus. The experiment can be described thus: Effective dose to block muricidal behavior in rat when administered ip. Format: functional.

With `COc1ccc2[nH]c3c(c2c1)CCN(C)CC3c1ccccc1` (centres undefined), the results for the ED50 in the experiment on Mus musculus and with Rattus norvegicus were 1.9 mg/kg and > 10 mg/kg, respectively.

For the molecule `Cn1c2c(c3ccccc31)CCNCC2c1ccccc1` (centres undefined), the figures for the ED50 in the experiment on Mus musculus and in the experiment with Rattus norvegicus were > 30 mg/kg and > 10 mg/kg, respectively.

Consider `CN1CCc2c([nH]c3ccccc23)C(c2ccccc2)C1` (centres undefined), for which the median effective dose (ED50) with Mus musculus was 1 mg/kg; in the experiment on Rattus norvegicus, > 10 mg/kg.

For the molecule `c1ccc(C2CNCCc3c2[nH]c2ccccc32)cc1` (centres undefined), the ED50 was > 30 mg/kg in the experiment on Mus musculus and 2.1 mg/kg in the experiment with Rattus norvegicus.

For `COc1ccc2[nH]c3c(c2c1)CCNCC3c1ccccc1` (centres undefined), the 50% effective dose (ED50) in the experiment on Mus musculus is > 30 mg/kg; in the experiment with Rattus norvegicus, 12.2 mg/kg.

Take `CN1CCc2c(n(C)c3ccccc23)C(c2ccccc2)C1` (centres undefined): the ED50 with Mus musculus was > 30 mg/kg; in the experiment with Rattus norvegicus it was > 20 mg/kg.

For `CN(C)CCCN1c2ccccc2CCc2ccccc21` [IMIPRAMINE], the median effective dose (ED50) in the experiment with Mus musculus was determined as 2 mg/kg; in the experiment with Rattus norvegicus it was 20.2 mg/kg.

A word on the ED50: it is the dose that gives a 50% effect, or the effect in half of the subjects. Low values mean greater potency, high ones weaker potency.
